Measured values reported in ChEMBL document CHEMBL1131722, “P1, P2'-linked macrocyclic amine derivatives as matrix metalloproteinase inhibitors” (Bioorg Med Chem Lett, 1999).

Columns and labels:
Neutrophil collagenase = Neutrophil collagenase (Homo sapiens, UniProt P22894); assay: Inhibition of Matrix metalloprotease-8 (MMP-8)
[1] = molecular target: Matrix metalloproteinase-9 (Homo sapiens, UniProt P14780); assay: Inhibition of Matrix metalloprotease-9 (MMP-9)
Interstitial collagenase = molecular target: T1, Interstitial collagenase (Homo sapiens, UniProt P03956); assay: Inhibition of Matrix metalloprotease-1 (MMP-1)
T1 sequence (P03956 whole entry): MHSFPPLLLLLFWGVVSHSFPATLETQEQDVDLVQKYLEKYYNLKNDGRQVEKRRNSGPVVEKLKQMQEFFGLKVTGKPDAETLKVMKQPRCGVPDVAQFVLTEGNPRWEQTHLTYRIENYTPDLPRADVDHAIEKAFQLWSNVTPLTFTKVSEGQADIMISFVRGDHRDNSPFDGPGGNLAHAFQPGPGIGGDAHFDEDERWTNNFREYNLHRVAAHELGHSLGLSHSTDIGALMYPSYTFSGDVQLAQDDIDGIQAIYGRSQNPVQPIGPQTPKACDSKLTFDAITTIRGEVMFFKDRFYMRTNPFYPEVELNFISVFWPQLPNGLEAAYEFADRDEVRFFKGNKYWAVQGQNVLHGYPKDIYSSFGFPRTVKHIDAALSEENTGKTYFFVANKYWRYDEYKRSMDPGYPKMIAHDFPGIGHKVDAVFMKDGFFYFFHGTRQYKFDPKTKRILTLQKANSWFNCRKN

Stromelysin-1 = Stromelysin-1 (Homo sapiens, UniProt P08254); assay: Inhibition of Matrix metalloprotease-3 (MMP-3)
Stromelysin-1, sequence (P08254 whole entry): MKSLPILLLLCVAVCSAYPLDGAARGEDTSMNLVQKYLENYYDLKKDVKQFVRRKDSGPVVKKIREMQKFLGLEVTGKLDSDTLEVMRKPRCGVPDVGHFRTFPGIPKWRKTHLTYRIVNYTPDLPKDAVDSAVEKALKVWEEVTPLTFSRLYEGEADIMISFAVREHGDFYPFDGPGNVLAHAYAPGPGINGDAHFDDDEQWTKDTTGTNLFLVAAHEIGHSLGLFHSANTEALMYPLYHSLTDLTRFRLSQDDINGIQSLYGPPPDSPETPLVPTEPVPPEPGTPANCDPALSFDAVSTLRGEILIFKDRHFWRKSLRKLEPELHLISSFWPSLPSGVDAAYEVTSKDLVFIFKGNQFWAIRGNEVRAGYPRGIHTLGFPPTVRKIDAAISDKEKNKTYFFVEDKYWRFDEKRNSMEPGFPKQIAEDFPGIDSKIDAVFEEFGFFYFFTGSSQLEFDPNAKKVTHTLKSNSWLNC

Matrix metalloproteinase-9, sequence (P14780 whole entry): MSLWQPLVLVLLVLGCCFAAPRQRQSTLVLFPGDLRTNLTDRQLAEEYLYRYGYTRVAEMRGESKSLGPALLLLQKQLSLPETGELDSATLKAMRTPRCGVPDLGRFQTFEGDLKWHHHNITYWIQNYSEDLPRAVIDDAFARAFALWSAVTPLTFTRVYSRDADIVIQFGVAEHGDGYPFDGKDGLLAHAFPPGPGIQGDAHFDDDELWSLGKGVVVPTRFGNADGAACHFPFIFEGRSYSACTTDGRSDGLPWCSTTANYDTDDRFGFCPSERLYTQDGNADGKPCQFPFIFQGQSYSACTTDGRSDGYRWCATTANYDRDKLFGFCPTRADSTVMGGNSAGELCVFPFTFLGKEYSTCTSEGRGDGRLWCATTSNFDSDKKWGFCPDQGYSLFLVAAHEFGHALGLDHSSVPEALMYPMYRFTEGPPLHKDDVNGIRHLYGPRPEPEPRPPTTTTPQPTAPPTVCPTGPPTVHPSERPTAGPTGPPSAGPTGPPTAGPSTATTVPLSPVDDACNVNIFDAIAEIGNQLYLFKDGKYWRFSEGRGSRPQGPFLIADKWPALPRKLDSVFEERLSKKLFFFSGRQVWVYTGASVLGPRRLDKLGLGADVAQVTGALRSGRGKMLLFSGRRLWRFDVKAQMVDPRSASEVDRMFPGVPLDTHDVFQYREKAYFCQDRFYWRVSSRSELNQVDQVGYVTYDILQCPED
Neutrophil collagenase, sequence (P22894 whole entry): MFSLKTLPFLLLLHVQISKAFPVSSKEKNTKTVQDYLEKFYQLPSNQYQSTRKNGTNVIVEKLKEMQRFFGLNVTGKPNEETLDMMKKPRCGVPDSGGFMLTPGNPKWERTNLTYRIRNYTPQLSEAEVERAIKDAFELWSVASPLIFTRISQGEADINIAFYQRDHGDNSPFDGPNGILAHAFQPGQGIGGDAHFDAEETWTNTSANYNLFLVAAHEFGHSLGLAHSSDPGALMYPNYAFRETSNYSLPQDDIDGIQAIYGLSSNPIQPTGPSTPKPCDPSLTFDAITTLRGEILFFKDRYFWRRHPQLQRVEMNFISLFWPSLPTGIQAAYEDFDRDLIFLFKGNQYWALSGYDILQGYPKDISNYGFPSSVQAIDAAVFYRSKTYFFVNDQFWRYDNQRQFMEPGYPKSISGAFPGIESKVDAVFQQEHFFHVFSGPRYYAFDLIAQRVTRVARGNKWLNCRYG

Structure (SMILES) | Ki (Neutrophil collagenase) | Ki [1] | Ki (Interstitial collagenase) | Ki (Stromelysin-1)
CNC(=O)[C@@H]1CCCN(C(=O)OC(C)(C)C)CCCCO[C@H](C(=O)NO)[C@@H](CCCc2ccccc2)C(=O)N1 | 13 nM | 19 nM | 1070 nM | 373 nM
CNC(=O)[C@@H]1CCCNCCCCO[C@H](C(=O)NO)[C@@H](CCCc2ccccc2)C(=O)N1 | 4 nM | 21 nM | 496 nM | 265 nM
CNC(=O)[C@@H]1CCCN(S(=O)(=O)c2ccccc2)CCCCO[C@H](C(=O)NO)[C@@H](CCCc2ccccc2)C(=O)N1 |  | 2 nM | 110 nM | 
CNC(=O)[C@@H]1CCCN(C(C)=O)CC(C)CO[C@H](C(=O)NO)[C@@H](CCCc2ccccc2)C(=O)N1 (some centres not stated) | 7 nM | 13 nM | 440 nM | 267 nM
CNC(=O)[C@@H]1CCCN(C(C)=O)CCCCO[C@H](C(=O)NO)[C@@H](CCCc2ccccc2)C(=O)N1 |  | 6 nM | 248 nM | 38 nM
